According to ChEMBL document CHEMBL1148417, “Thiol-based SAHA analogues as potent histone deacetylase inhibitors” (Bioorg Med Chem Lett, 2004):

Biological target: Histone deacetylase
Format: protein assay
Description: In vitro inhibitory activity against human histone deacetylase (HDAC) using HeLa nuclear extract

Compound	IC50 [µM]
CSCCCCCCC(=O)Nc1ccccc1	> 100
O=C(CCCCCCNCCS)Nc1ccccc1.O=C(O)C(F)(F)F	> 100
